For series [1], the system named is HepG2. The experiment in a line: Cytotoxicity against human HepG2 cells incubated for 72 hrs by MTT assay. The series is classed as functional, cell-based. The settings on record: HepG2, 72 h.
Series [2] concerns A549. The experiment in a line: Cytotoxicity against human A549 cells incubated for 72 hrs by MTT assay. The series is classed as functional, cell-based. The settings on record: A549, 72 h.
Series [3] concerns HeLa. The experiment in a line: Cytotoxicity against human HeLa cells incubated for 72 hrs by MTT assay. The series is classed as functional, cell-based.
In series [4] the test system is HCT-116. The experiment in a line: Cytotoxicity against human HCT-116 cells incubated for 72 hrs by MTT assay. It is filed as functional, cell-based. The settings on record: HCT-116, 72 h.
Series [5] concerns PDX27454. Put plainly: Antitumor activity against human PDX27454 cells xenografted in SCID mouse at 2 to 15 mg/kg, ip administered weekly for 4 weeks. The series is classed as functional, organism-based. The following applies: dose 2-15 mg/kg.
The nature of series [6]: Toxicity in SCID mouse assessed as change in body weight at 2 to 15 mg/kg, ip administered weekly for 4 weeks. It is filed as organism-based. The following applies: in vivo, 672 h, dose 2-15 mg/kg.
Series [7] relates to PDX27454. The experiment in a line: Antitumor activity against human PDX27454 cells xenografted in SCID mouse at 15 mg/kg, ip administered weekly for 4 weeks. The series is classed as functional, organism-based.
For series [8], the system named is PDX27454. Put plainly: Antitumor activity against human PDX27454 cells xenografted in ip dosed SCID mouse administered weekly for 4 weeks and measured after 35 days. The settings on record: dose 2-15 mg/kg. It is filed as functional, organism-based.
For series [9], the system named is HCT-116. Put plainly: Inhibition of colony formation in human HCT-116 cells incubated for 12 hrs by crystal violet staining based assay. The series is classed as functional, cell-based. The settings on record: dose 5-25 nM.
Series [10] relates to HCT-116. The experiment in a line: Induction of ROS generation in human HCT-116 cells incubated for 72 hrs by DCFH-DA staining based assay. The series is classed as functional, cell-based. The settings on record: dose 5-100 nM.
Series [11] relates to HCT-116. The experiment in a line: Induction of ROS generation in human HCT-116 cells incubated for 12 hrs by DCFH-DA staining based assay. It is filed as functional, cell-based.
In series [12] the test system is HCT-116. The experiment in a line: Induction of apoptosis in human HCT-116 cells assessed as viable cells at 2.5 nM incubated for 48 hrs by PI/Annexin V-FITC staining based flow cytometry assay (reference value: 93%). The series is classed as functional. The settings on record: read-out: Activity.
Series [13] has as its system HCT-116. Put plainly: Induction of apoptosis in human HCT-116 cells assessed as early apoptotic cells at 2.5 nM incubated for 48 hrs by PI/Annexin V-FITC staining based flow cytometry assay (reference value: 0.27%). It is filed as functional.
The subject of series [14] is HCT-116. The experiment in a line: Induction of apoptosis in human HCT-116 cells assessed as late apoptotic cells at 2.5 nM incubated for 48 hrs by PI/Annexin V-FITC staining based flow cytometry assay (reference value: 4.02%). It is filed as functional.
Series [15] has as its system HCT-116. Put plainly: Induction of apoptosis in human HCT-116 cells assessed as necrotic cells at 2.5 nM incubated for 48 hrs by PI/Annexin V-FITC staining based flow cytometry assay (reference value: 2.58%). The series is classed as functional.
Series [16] deals with HCT-116. Put plainly: Induction of apoptosis in human HCT-116 cells assessed as viable cells at 10 nM incubated for 48 hrs by PI/Annexin V-FITC staining based flow cytometry assay (reference value: 93%). The settings on record: read-out: Activity. The series is classed as functional.
Series [17] has as its system HCT-116. Put plainly: Induction of apoptosis in human HCT-116 cells assessed as early apoptotic cells at 10 nM incubated for 48 hrs by PI/Annexin V-FITC staining based flow cytometry assay (reference value: 0.27%). It is filed as functional.
Series [18] has as its system HCT-116. The experiment in a line: Induction of apoptosis in human HCT-116 cells assessed as late apoptotic cells at 10 nM incubated for 48 hrs by PI/Annexin V-FITC staining based flow cytometry assay (reference value: 4.02%). The series is classed as functional.
Series [19] concerns HCT-116. The experiment in a line: Induction of apoptosis in human HCT-116 cells assessed as necrotic cells at 10 nM incubated for 48 hrs by PI/Annexin V-FITC staining based flow cytometry assay (reference value: 2.58%). The series is classed as functional.
The subject of series [20] is HCT-116. The experiment in a line: Induction of apoptosis in human HCT-116 cells assessed as viable cells at 50 nM incubated for 48 hrs by PI/Annexin V-FITC staining based flow cytometry assay (reference value: 93%). It is filed as functional. The following applies: read-out: Activity.
Series [21] deals with HCT-116. Put plainly: Induction of apoptosis in human HCT-116 cells assessed as early apoptotic cells at 50 nM incubated for 48 hrs by PI/Annexin V-FITC staining based flow cytometry assay (reference value: 0.27%). It is filed as functional.
The test system of series [22] is HCT-116. Put plainly: Induction of apoptosis in human HCT-116 cells assessed as late apoptotic cells at 50 nM incubated for 48 hrs by PI/Annexin V-FITC staining based flow cytometry assay (reference value: 4.02%). It is filed as functional.
In series [23] the test system is HCT-116. Put plainly: Induction of apoptosis in human HCT-116 cells assessed as necrotic cells at 50 nM incubated for 48 hrs by PI/Annexin V-FITC staining based flow cytometry assay (reference value: 2.58%). It is filed as functional.
Series [24] has as its system HCT-116. The experiment in a line: Downregulation of XIAP protein level in human HCT-116 cells at 50 to 100 nM incubated for 72 hrs by Western blotting assay. The series is classed as functional, cell-based. The settings on record: dose 50-100 nM.
The subject of series [25] is HCT-116. The experiment in a line: Downregulation of Bcl-2 protein level in human HCT-116 cells at 50 to 100 nM incubated for 72 hrs by Western blotting assay. The settings on record: dose 50-100 nM. The series is classed as functional, cell-based.
The subject of series [26] is HCT-116. Put plainly: Downregulation of survivin protein level in human HCT-116 cells at 50 to 100 nM incubated for 72 hrs by Western blotting assay. It is filed as functional, cell-based. The following applies: dose 50-100 nM.
In series [27] the test system is HCT-116. Put plainly: Upregulation of Bax protein level in human HCT-116 cells incubated for 72 hrs by Western blotting assay. The following applies: dose 50-100 nM. The series is classed as functional, cell-based.
Series [28] has as its system HCT-116. Put plainly: Upregulation of gammaH2AX protein level in human HCT-116 cells incubated for 72 hrs by Western blotting assay. It is filed as functional, cell-based. The following applies: dose 50-100 nM.
Series [29] addresses T1, DNA topoisomerase 1 (Homo sapiens) (UniProt P11387).
T1 sequence (whole entry): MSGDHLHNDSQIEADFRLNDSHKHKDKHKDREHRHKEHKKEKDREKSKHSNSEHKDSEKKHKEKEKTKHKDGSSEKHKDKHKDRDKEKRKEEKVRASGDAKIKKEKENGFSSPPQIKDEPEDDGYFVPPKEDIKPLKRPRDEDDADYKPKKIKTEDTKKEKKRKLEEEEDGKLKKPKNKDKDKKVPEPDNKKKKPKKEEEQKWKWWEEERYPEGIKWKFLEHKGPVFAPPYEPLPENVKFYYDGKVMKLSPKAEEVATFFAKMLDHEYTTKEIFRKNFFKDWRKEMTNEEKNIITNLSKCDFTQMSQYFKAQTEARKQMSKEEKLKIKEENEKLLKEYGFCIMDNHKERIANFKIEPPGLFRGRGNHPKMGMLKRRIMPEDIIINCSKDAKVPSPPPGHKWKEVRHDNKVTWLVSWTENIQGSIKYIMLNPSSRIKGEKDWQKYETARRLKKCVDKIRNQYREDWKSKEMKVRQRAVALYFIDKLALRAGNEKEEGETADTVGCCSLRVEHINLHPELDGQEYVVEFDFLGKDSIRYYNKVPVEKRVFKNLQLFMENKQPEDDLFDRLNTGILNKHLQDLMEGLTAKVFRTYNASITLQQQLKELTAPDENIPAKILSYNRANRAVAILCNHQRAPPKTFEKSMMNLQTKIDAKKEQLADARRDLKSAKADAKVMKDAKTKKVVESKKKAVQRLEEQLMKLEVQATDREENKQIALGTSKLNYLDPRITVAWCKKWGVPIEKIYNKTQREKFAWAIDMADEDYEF
Put plainly: Inhibition of topoisomerase 1 (unknown origin) using pBR322 DNA as substrate by ethidium bromide staining based agarose gel electrophoresis method.

For series [30], the system named is HCT-116. Put plainly: Downregulation of DDX5 protein expression in human HCT-116 cells at 100 nM incubated upto 72 hrs by Western blotting assay. It is filed as functional, cell-based.
Series [31] addresses T1, DNA topoisomerase 1 (Homo sapiens). Put plainly: Inhibition of topoisomerase 1 (unknown origin) using pBR322 DNA as substrate in presence of DDX5 by ethidium bromide staining based agarose gel electrophoresis method.
The target is the same in series [32]. Put plainly: Inhibition of topoisomerase 1 (unknown origin) assessed as reduction in nicking of supercoiled DNA at 5 to 50 uM using pBR322 DNA as substrate by ethidium bromide staining based agarose gel electrophoresis method. The following applies: dose 5-50 µM.
The target is the same in series [33]. The experiment in a line: Inhibition of topoisomerase 1 (unknown origin) assessed as reduction in nicking of supercoiled DNA at 0.05 to 0.5 uM using pBR322 DNA as substrate by ethidium bromide staining based agarose gel electrophoresis method. The settings on record: dose 0.05-0.5 µM.

Consider 8 compounds from ChEMBL document CHEMBL6074683, “Design, synthesis and investigation of biological activity and mechanism of fluoroaryl-substituted derivatives at the FL118 position 7” (Eur J Med Chem, 2025).

Active and inactive are the calls of the source. The calls are words filed in the database; no cut-off is given here.

Consider `CC[C@@]1(O)C(=O)OCc2c1cc1n(c2=O)Cc2c-1nc1cc3c(cc1c2-c1cccc(F)c1)OCO3`, for which the IC50 was found to be 155 nM in [1], 40 nM in series [2], 34.7 nM in series [3] and 150 nM in series [4].

Regarding `CC[C@@]1(O)C(=O)OCc2c1cc1n(c2=O)Cc2c-1nc1cc3c(cc1c2-c1cc(C)cc(F)c1)OCO3`, the IC50 turned out to be 56 nM in series [1], 30.6 nM in [2], 56.5 nM in series [3] and 41.4 nM in series [4].

On to `CC[C@@]1(O)C(=O)OCc2c1cc1n(c2=O)Cc2c-1nc1cc3c(cc1c2-c1ccc(OC(F)(F)F)cc1)OCO3`, for which the IC50 in series [1] came out at 229 nM; in series [2] it was 87.3 nM; in series [3], 398 nM; in series [4], 196 nM.

In the case of `CC[C@@]1(O)C(=O)OCc2c1cc1n(c2=O)Cc2c-1nc1cc3c(cc1c2-c1cc(F)cc(F)c1)OCO3`, the IC50 worked out at 41.4 nM in series [1], 49.5 nM in [2], 35.6 nM in [3] and 48 nM in [4]. Further, in series [5], the result was Active. For the same compound, the Activity result in [6] is listed as “Non-toxic”.

For the compound `CC[C@@]1(O)C(=O)OCc2c1cc1n(c2=O)Cc2c-1nc1cc3c(cc1c2-c1ccc(F)c(F)c1)OCO3`, the IC50 in series [1] was 49.9 nM; in series [2] it was 9 nM; in series [3], 39.7 nM; in [4] it was 48.8 nM.

Take `CC[C@@]1(O)C(=O)OCc2c1cc1n(c2=O)Cc2c-1nc1cc3c(cc1c2-c1cc(F)cc(OC)c1)OCO3`: the IC50 in [1] was 48.5 nM; in series [2], 15.5 nM; in series [3], 124 nM; in series [4] it was 66.9 nM.

Consider `CC[C@@]1(O)C(=O)OCc2c1cc1n(c2=O)Cc2c-1nc1cc3c(cc1c2-c1cccc(OC(F)(F)F)c1)OCO3`, for which the IC50 in series [1] amounted to 16.8 nM; in series [2], 26.4 nM; in series [3], 12.8 nM; in series [4], 14.6 nM.

On to `CC[C@@]1(O)C(=O)OCc2c1cc1n(c2=O)Cc2c-1nc1cc3c(cc1c2-c1ccc(F)c(OC)c1)OCO3`, for which the outcome in series [5], in series [7], in series [24], in [25], in series [26] and in series [27] was Active. Further, the outcome in series [28], in series [31] and in series [32] was Active. Also, the Activity result is “Dose-dependent-effect” in series [8]; “Non-toxic” in series [6]; “Dose-dependent-effect” in series [10]; 0.64% in [13]; 10.9% in [14]; 4.13% in series [15]. Moreover, the Activity in series [17] came out at 0.5%; in series [18] it was 16.3%; in series [19], 4.17%; in [21], 0.78%; in [22], 25.9%; in [23], 5.94%. Further, the inhibition entry in [9] was “Dose-dependent-effect”. The outcome in [11], in series [30] and in [33] was inactive. For the same compound, the viability at 0.0025 µM in series [12] is 84.4%. Moreover, the viability at 0.01 µM in series [16] was determined as 79%. Further, the viability at 0.05 µM in series [20] stood at 67.5%. The inhibition result in series [29] is “Active”.
